# Experiments:
# [1] = biological target: T1, constitutive NO synthase (cNOS) (Rattus norvegicus, UniProt P29476); assay: Activity to inhibit constitutive NO synthase (cNOS) derived from rat cerebellum; conversion of [3H]-L-arginine to [3H]-L-citrulline; format: biochemical; conditions: cNOS extracted from rat cerebellum, 10 µM L-arginine, 10 minutes at 25°C; read-out: IC₅₀
# T1 construct: cNOS was extracted from a rat cerebellum; from tissue; host or cells: rat cerebellum
# Experimental: Activity to inhibit constitutive NO synthase (cNOS) derived from rat cerebellum
# The inhibition activity was tested according to a method of P. A. Bush et al. (Biochem, Biophys, Res. Commun., 185, 960-966 (1992)), using [³H]-L-arginine as a substrate and taking the conversion of [³H]-L-arginine to [³H]-L-citrulline as an index of the enzyme activity.
# The test was conducted as follows: First, cNOS was extracted from a rat cerebellum with a 50 mM Tris-HCl buffer solution (pH 7.4) which contains 0.1 mM EDTA (ethylenediamine tetraacetate), 0.1 mM EGTA (ethyleneglycol bis(β-aminoethyl ether)-tetraacetate), 0.5 mM DTT (dithiothreitol), 1 µM PMSF (phenylmethylsulfonyl fluoride), 1 µM bestatin A, and 1 µM leupeptin. To the cNOS thus extracted, a 50 mM Tris-HCl buffer solution (pH 7.4) containing 10 µM L-arginine, 10 µM NADPH, 2 mM calcium chloride and calmoduline (0.1 µg), together with a test compound and [³H]-L-arginine were added. The mixture was incubated for 10 minutes at 25°C. The reaction was terminated by adding 20 mM sodium acetate buffer solution (pH 5.5) containing 1 mM L-citrulline, 2 mM EDTA, and 0.2 mM EGTA. The reaction solution was passed through a cation-exchange resin. This eluate was combined with another eluate which was obtained thereafter by eluting with water. To the combined eluate, a liquid scintillation cocktail was further added and its radioactivity (A) was measured. At the same time, the radioactivity (B) with respect to the case where the test compound was not added and the radioactivity (C) with respect to the case where an enzyme fraction was not added, were respectively measured. Then, the rate of cNOS inhibition was calculated in accordance with the following equation. The concentration (IC₅₀), at which the test compound can inhibit 50 % of the enzyme activity, were also calculated. Inhibition rate (%) = {1 - (A - C/B - C)} × 100 [formula]
# [2] = biological target: T2, endothelium nitric oxide synthase (eNOS) (Rattus norvegicus, UniProt Q62600); assay: Blood pressure elevating activity in rat by inhibition of eNOS; format: in vivo; conditions: dose to elevate mean blood pressure by 25 mmHg; anesthetized rat, administered via femoral vein
# T2 construct: from tissue; host or cells: living anesthetized rat
# Experimental: Blood pressure elevating activity in rat by inhibition of endothelium nitric oxide synthase (eNOS) A rat was anesthetized with by peritoneal injection of sodium barbital (300 mg/kg) and catheters were inserted into a femoral artery and a femoral vein. Blood pressure was measured through the catheter inserted in the femoral artery and a test compound was administered through the catheter inserted in the femoral vein. […]
# neuronal NOS (nNOS) = biological target: T3, neuronal NOS (nNOS) (Rattus norvegicus, UniProt P29476); assay: Effect on rat cerebral ischemia model by nNOS inhibition: permanent occlusion model; format: in vivo; conditions: dose 10µg/kg+1µg/kg/min; intravenous 5 minutes after occlusion, then infused for 6 hours; cerebral infarct area after 24 hours
# T3 construct: from tissue; host or cells: living rat (brain)
# Text: Effect on rat cerebral ischemia model by neuronal NOS (nNOS) inhibition: permanent occlusion model According to a partly modified method of Tamura et al. (J. Cereb. Blood Flow Matab., 1, 53-60 (1981)), an cerebral ischemia model was established by permanently blocking a rat middle cerebral artery. That is, a rat was anesthetized with laughing gas - oxygen and halothane, and then, a hole was formed at a cranial bone in the periphery of oval foramen, thereby exposing the middle cerebral artery. Subsequently, a middle cerebral artery was clipped and coagulated, thereby established a permanent occlusion model. After 24 hours, a brain was excised out and cerebral infarct area were determined by use of triphenyltetrazolium chloride. A test compound was injected intravenously 5 minutes after the occlusion and subsequently infused for 6 hours. The suppression effect was investigated.
# [3] = biological target: inducible NO synthase (iNOS) (Rattus norvegicus, UniProt Q06518); assay: Activity to inhibit inducible NO synthase (iNOS) derived from rat macrophages; conversion of [3H]-L-arginine to [3H]-L-citrulline; format: biochemical; design: iNOS was extracted from the macrophages which have been treated with lipopolysaccharide and interferon-γ; endogenous in cells; host or cells: rat peritoneal macrophages treated with lipopolysaccharide and interferon-γ; conditions: iNOS from peritoneal macrophages treated with lipopolysaccharide and interferon-γ, 150 µM L-arginine, 30 minutes at 37°C; read-out: IC₅₀
# Experimental: Activity to inhibit inducible NO synthase (iNOS) derived from rat macrophages
# According to partly modified method of Y. Yui et al.(J. Biol. Chem., 266 (19), 12544-12547 (1991)), an iNOS fraction was prepared by applying lipopolysaccharide and interferon-γ to peritoneal macrophages. Thereafter, its enzymatic activity was measured based on the conversion of [³H]-L-arginine to [³H]-L-citrulline, in the same manner as in the case of cNOS.
# To the iNOS thus extracted, a 50 mM Tris-HCl buffer solution (pH 7.4) containing 150 µM L-arginine, 5 mM NADPH, 5 mM DTT, 0.5 mM 5,6,7,8-tetrahydro-L-biopterin and 5 µM FAD was added together with a test compound and [³H]-L-arginine. The mixture was incubated for 30 minutes at 37°C. Thereafter, the reaction was terminated by adding a 25 mM sodium acetate buffer solution (pH 5.5) containing 1.25 mM L-citrulline, 2.5 mM EDTA and 0.25 mM EGTA. The reaction solution was passed through a cation-exchange resin. The obtained eluate was combined with the additional eluate obtained thereafter by eluting with water, and the radioactivity of the combined eluate was measured. The inhibition rate of the test compound on iNOS was calculated in the same manner as in Test 1. The concentration (IC₅₀) of the test compound required for inhibiting 50 % of the enzyme activity, were calculated.
smiles,measurement,setting,value
"CCC[C@@H]1CCSC(N)=N1.Cl [Example 31, (R)-2-amino-5,6-dihydro-4-propyl-4H-1,3-thiazine hydrochloride]",IC50,[1],20 nM
same,ED₂₅,[2],0.46 mg/kg
same,Suppression Effect,neuronal NOS (nNOS),○ (10µg/kg+1µg/kg/min)
same,IC50,[3],10 nM

# From patent EP0717040A1, “Thiazine or thiazepine derivatives which inhibit NOS” (Japan Tobacco Inc., priority 1994, dated 1996)
